Measured values as given in patent US20120245029A1, “NOVEL PHOSPH(ON)ATE- AND SULF(ON)ATE-BASED PHOSPHATE MODIFIED NUCLEOSIDES USEFUL AS SUBSTRATES FOR POLYMERASES AND AS ANTIVIRAL AGENTS” (priority 2009, published 2012).

Tests used:
HIV-1 RT [1] = target: T1, HIV-1 RT (Human immunodeficiency virus type 1 group M subtype B, UniProt P04585); assay: Elongation of primer P1 directed by template T2 by HIV-1 RT; type: biochemical; settings: for % product P + 1 / % product P + 2 / % product P + 3 / % product P + 4 / % product P + 5 / % product P + 6 / % product P + 7: 120 minutes reaction, P1T2, percentage of the total amount of radio-nucleotides
T1 construct: HIV-1 Reverse Transcriptase serves, in the HIV-1 viral replication process, as catalyst; purchased Ambion
Description: (§1) DNA polymerase reactions: end-labeled primer was annealed to its template by combining primer and template in a molar ratio of 1:2 and heating the mixture to 70° C. for 10 minutes followed by slow cooling to room temperature over a period of 1.5 hour. For the incorporation of a modified nucleoside, a series of 20 μL-batch reactions was performed with the enzyme HIV-1 RT (Ambion, 10 U/μL stock soln, specific activity 8.095 Wring, concentration 1.2 mg/mL). The final mixture contained 125 nM primer template complex, RT buffer (250 mM Tris.HCl, 250 mM KCl, 50 mM MgCl2, 2.5 mM spermidine, 50 mM dithiothreitol (DTT); pH 8.3), 0.025 U/μL HIV-1 RT, and different concentrations of the phosphoramidate to be tested (1 mM, 500 μM, 200 μM and 100 μM).
(§2) Electrophoresis: all polymerase reaction aliquots (2.5 μL) were quenched by the addition of 10 μL of loading buffer (90% formamide, 0.05% bromophenol blue, 0.05% xylene cyanol and 50 mM ethylenediaminetetraacetic acid (EDTA)). Samples were heated at 85° C. for 5 minutes prior to analysis by electrophoresis for 2.5 hours at 2000 V on a 30 cm×40 cm×0.4 mm 20% (19:1 mono:bis) denaturing gel in the presence of a 100 mM Tris-borate, 2.5 mM EDTA buffer; pH 8.3. Products were visualized by phosphorimaging. The amount of radioactivity in the bands corresponding to the products of enzymatic reactions was determined by using the imaging device Cyclone@ and the Optiquant image analysis software (Perkin Elmer).
In order to further investigate the potentiality of the leaving groups of this invention, L-Cys-dAMP (2) and 3-phosphono-L-Ala-dAMP (3) were tested in the template dependent incorporation of more than one phosphoramidate nucleotides by HIV-1 RT (FIG. 4). For this purpose, Primer P1 and template T2 containing an overhang of seven thymidine residues and four nucleobases (GGAC) at the 3′-end were used.
In order to investigate the strand elongation capacity of compound 2, a template dependent incorporation of more than one nucleotide experiment was carried out. In this experiment HIV-1 RT and P1T2 duplex, where seven thymidine bases overhang of the template is flanked by four non-thymidine units at the 3′-end were used. A range of concentration of the building block was incubated with the primer-template complex and 0.025 U/μL of enzyme at the appropriate temperature, samples were quenched after 15, 30, 60, 90 and 120 minutes respectively and analyzed by 20% polyacrylamide gel electrophoresis.

HIV-1 RT [2] = target: T1, HIV-1 RT; assay: Gel-based single nucleotide incorporation assay by HIV-1 RT (primer-template P1T1); type: biochemical; settings: for conversion within 60 minutes: P1T1; for % of P + 1: P1T1 125 nM
Description: as §1, §2
Here, the ability of phosphoramidate analogues as substrate for HIV-1 RT was investigated by the gel-based single nucleotide incorporation assay. The natural nucleoside triphosphate (dATP) was used as reference.
The ability of HIV-1 reverse transcriptase to incorporate phosphoramidate analogues 2-6 was analysed by gel-based single-nucleotide-incorporation assays using the primer-template complex P1T1.

HIV-1 RT [3] = target: T1, HIV-1 RT; settings: previous experiments / already known; cited from earlier work
HIV-1 RT [4] = target: T1, HIV-1 RT; assay: Gel-based single nucleotide incorporation assay by HIV-1 RT (primer-template P1T1); type: biochemical; settings: among phosphoramidate analogues 1-5
HIV-1 RT [5] = target: T1, HIV-1 RT; assay: Steady-state kinetics of single nucleotide incorporation by HIV-1 RT; type: biochemical; settings: P1T1 125 nM, HIV-1 RT 0.025 U/μL, 37° C.
Description: The efficiency of incorporation by HIV-1 RT of 3-phosphono-L-Ala-dAMP (3) was investigated by determination of the kinetic parameters Km and Vmax. The steady-state kinetics assay was carried out as follows. The reaction was started by adding HIV-1 RT to P1-T1 complex, buffer, 3-phosphono-L-Ala-dAMP (3) and dATP. The final mixture (20 μL) contained 0.025 U/μL HIV-1 RT, buffer, 125 nM primer-template complex, and various concentrations 3-phosphono-L-Ala-dAMP and dATP. The range of concentrations for phosphoamidates was optimized according to a Km value for the incorporation of an individual nucleotide. In the case of HIV-1 RT, reaction mixtures containing the enzyme in concentration (0.025 U/μL) to attain 5-25% conversion and appropriate substrate concentration (0.5-100 μM used for 3-phosphono-L-Ala-dAMP (3) and 0.1-10 μM used for dATP) were incubated at 37° C. and run for 8-10 different time intervals (2-20 minutes). The incorporation velocities were calculated based on the percentage of single-nucleotide extension product (P+1 band). The kinetic parameters (Vmax and Km) were determined by plotting V (nM/min) versus substrate concentration (μM) and fitting the data point to a nonlinear Michaelis-Menten regression using GraphPad Prism software.

SMILES	% product P + 1 (HIV-1 RT [1]) [%]	% product P + 2 (HIV-1 RT [1]) [%]	% product P + 3 (HIV-1 RT [1]) [%]	% product P + 4 (HIV-1 RT [1])	% product P + 5 (HIV-1 RT [1]) [%]	% product P + 6 (HIV-1 RT [1]) [%]	% product P + 7 (HIV-1 RT [1]) [%]	conversion within 60 minutes (HIV-1 RT [2]; 500 μM substrate, 60 min) [%]	% of P + 1 (HIV-1 RT [2]; 1 mM substrate, 60 min) [%]	% of P + 1 (HIV-1 RT [2]; 100 μM substrate, 10 min) [%]	% of P + 1 (HIV-1 RT [2]; 100 μM substrate, 20 min) [%]	% of P + 1 (HIV-1 RT [2]; 100 μM substrate, 30 min) [%]	% of P + 1 (HIV-1 RT [2]; 100 μM substrate, 60 min) [%]	% of P + 1 (HIV-1 RT [2]; 100 μM substrate, 120 min) [%]	% of P + 1 (HIV-1 RT [2]; 200 μM substrate, 10 min) [%]	% of P + 1 (HIV-1 RT [2]; 200 μM substrate, 20 min) [%]	% of P + 1 (HIV-1 RT [2]; 200 μM substrate, 30 min) [%]	% of P + 1 (HIV-1 RT [2]; 200 μM substrate, 60 min) [%]	% of P + 1 (HIV-1 RT [2]; 200 μM substrate, 120 min) [%]	also measured
Nc1ncnc2c1ncn2[C@H]1CC(O)[C@@H](COP(=O)(O)N(CC(=O)O)CP(=O)(O)O)O1 (stereo partly shown) [Compound 8]	11.8	37.7	7.9	traces	1.2	0.6	1.2	70.8	–	–	–	–	–	–	–	–	–	–	–	–
Nc1ncnc2c1ncn2C1CC(O)C(COP(=O)(O)NC(CC(=O)O)C(=O)O)O1 [L-aspartic acid phosphoramidate of dAMP]	–	–	–	–	–	–	–	–	–	–	–	–	–	–	–	–	–	–	–	substrate / leaving group quality for the polymerase (in words), already known (HIV-1 RT [3]): acceptable leaving group
Nc1ncnc2c1ncn2[C@H]1C[C@H](O)[C@@H](COP(=O)(O)N[C@@H](COS(=O)(=O)O)C(=O)O)O1 [Compound 4, 2′-Deoxyadenosine-5′-(O-sulfonato-L-serine) phosphoramidate]	–	–	–	–	–	–	–	–	8.1	–	–	–	–	–	–	–	–	–	–	substrate quality for HIV-1 RT (in words) (HIV-1 RT [4]): much less good substrates
Nc1ncnc2c1ncn2[C@H]1C[C@H](O)[C@@H](COP(=O)(O)N[C@@H](CO)C(=O)O)O1 [Ser-dAMP]	–	–	–	–	–	–	–	–	–	–	–	–	–	–	–	–	–	–	–	substrate / leaving group quality for the polymerase (in words), already known (HIV-1 RT [3]): poor substrate
Nc1ncnc2c1ncn2[C@H]1C[C@H](O)[C@@H](COP(=O)(O)N[C@@H](COP(=O)(O)O)C(=O)O)O1 [Compound 5, 2′-Deoxyadenosine-5′-(O-phospho-L-serine) phosphoramidate]	–	–	–	–	–	–	–	–	19.4	3.1	3.2	4.6	5.1	5.2	3.7	4.6	5.8	6.6	9.5	substrate quality for HIV-1 RT (in words) (HIV-1 RT [4]): much less good substrates
Nc1ncnc2c1ncn2[C@H]1C[C@H](O)[C@@H](COP(=O)(O)N(CCP(=O)(O)O)CCP(=O)(O)O)O1 [Compound 7, 2′-deoxyadenosine-5′-[iminobis(ethyl phosphonate)] phosphoramidate]	15.2	35.4	4.9	traces	0	0	0	83.2	–	–	–	–	–	–	–	–	–	–	–	–
Nc1ncnc2c1ncn2[C@H]1C[C@H](O)[C@@H](COP(=O)(O)N(CP(=O)(O)O)CP(=O)(O)O)O1 [Compound 6, 2′-deoxyadenosine-5′-[iminobis(methanephosphonate)] phosphoramidate]	8.6	53.1	10.8	traces	0	0	0	90	–	–	–	–	–	–	–	–	–	–	–	–
Nc1ncnc2c1ncn2[C@H]1C[C@H](O)[C@@H](COP(=O)(O)NCCS(=O)(=O)O)O1 [Compound 1, 2′-deoxyadenosine-5′-taurine phosphoramidate]	–	–	–	–	–	–	–	–	54.7	3.5	4.0	4.8	6.3	7.2	3.1	5.7	4.6	5.1	4.3	% of P + 1 (HIV-1 RT [2]; 500 μM substrate, 10 min): 12.8%; % of P + 1 (HIV-1 RT [2]; 500 μM substrate, 20 min): 16.6%; % of P + 1 (HIV-1 RT [2]; 500 μM substrate, 30 min): 19.8%; % of P + 1 (HIV-1 RT [2]; 500 μM substrate, 60 min): 20.1%; % of P + 1 (HIV-1 RT [2]; 500 μM substrate, 120 min): 20.2%; % of P + 1 (HIV-1 RT [2]; 1 mM substrate, 10 min): 26.6%; % of P + 1 (HIV-1 RT [2]; 1 mM substrate, 20 min): 41.0%; % of P + 1 (HIV-1 RT [2]; 1 mM substrate, 30 min): 55.1%; % of P + 1 (HIV-1 RT [2]; 1 mM substrate, 120 min): 55.7%
Nc1ncnc2c1ncn2[C@H]1C[C@H](O)[C@@H](COP(=O)(O)N[C@@H](CS(=O)(=O)O)C(=O)O)O1 [Compound 2, 2′-Deoxyadenosine-5′-(L-cysteic acid) phosphoramidate]	–	–	–	–	–	–	–	–	63.1	7.7	7.9	8.5	9.3	9.1	13.7	15.6	16.0	15.8	18.1	primer extension products (in words) (HIV-1 RT [1]; P1T2, gel electrophoresis): only extended a primer with one and two adenine nucleobases; % of P + 1 (HIV-1 RT [2]; 500 μM substrate, 10 min): 27.7%; % of P + 1 (HIV-1 RT [2]; 500 μM substrate, 20 min): 29.6%; % of P + 1 (HIV-1 RT [2]; 500 μM substrate, 30 min): 38.3%; % of P + 1 (HIV-1 RT [2]; 500 μM substrate, 60 min): 38.4%; % of P + 1 (HIV-1 RT [2]; 500 μM substrate, 120 min): 41.5%
Nc1ncnc2c1ncn2[C@H]1C[C@H](O)[C@@H](COP(=O)(O)OP(=O)(O)OP(=O)(O)O)O1 [dATP, reference compound]	–	–	–	–	–	–	–	–	–	–	–	–	–	–	–	–	–	–	–	Km (HIV-1 RT [5]): 0.93 ± 0.26 µM; Vmax (HIV-1 RT [5]): 32.27 ± 2.32 nM/min
